Results on 30 compounds are retold here after US9902701B2, “Pyridazones and triazinones for treatment and prophylaxis of hepatitis B virus infection” (priority 2014, dated 2018).

Each structure is given as a SMILES string.

The term IC50 denotes the concentration at which inhibition is half-maximal. A low value points to greater potency in that assay.

This experiment concerns HBsAg. Put plainly: HBsAg assay: chemiluminescence immunoassay (CLIA) of secreted HBsAg in supernatant of HepG2.2.15 cells. The format is cell-based, HBV. As to conditions: Hepatitis B virus. As to the method:
HepG2.2.15 cells (Acs et al. Proc Natl Acad Sci USA, 84, (1987), 4641-4), a constitutively HBV-expressing cell line were cultured in DMEM+Glutamax-I medium (Invitrogen, Carlsbad, Calif., USA), supplemented with 10% fetal bovine serum (Invitrogen) and G418 (Invitrogen) at a final concentration of 200 mg/L and maintained in 5% CO2 at 37° C.
HepG2.2.15 cells were seeded in duplicate into white, 96-well plates at 1.5×10^4 cells/well. The cells were treated with a three-fold serial dilution series of the compounds in DMSO. The final DMSO concentration in all wells was 1% and DMSO was used as no drug control.
The HBsAg chemiluminescence immunoassay (CLIA) kit (Autobio Diagnostics Co., Zhengzhou, China, Catalog number: CL0310-2) was used to measure the levels of secreted HBV antigens semi-quantitatively. For the detection 50 μL/well culture supernatant was used and HBsAg was quantified using HBsAg chemiluminescence immunoassay (CLIA) kit (Autobio Diagnostics Co., Zhengzhou, China, Catalog number: CL0310-2), 50 μL of the supernatant was transferred to the CLIA assay plate and 50 μL of enzyme conjugate reagent was added into each well. The plates were sealed and gently agitated for 1 hour at room temperature. The supernatant-enzyme-mixture was discarded and wells were washed 6 times with 300 μL of PBS. The residual liquid was removed by plating the CLIA plate […] on absorbent tissue paper. 25 μL of substrates A and B were added to each well. Luminance was measured using a luminometer (Mithras LB 940 Multimode Microplate Reader) after 10 minutes incubation. Dose-response curves were generated and the IC50 value was extrapolated by using the E-WorkBook Suite (ID Business Solutions Ltd., Guildford, UK). The IC50 was defined as the compound concentration (or conditioned media log dilution) at which HBsAg secretion was reduced by 50% compared to the no drug control.
Take `CN(C(=O)CN1N=C(c2ccc(Cl)cc2)CCC1=O)c1ccc(C(F)(F)F)cc1` [Example 1-9, 2-[3-(4-Chlorophenyl)-6-oxo-4,5-dihydropyridazin-1-yl]-N-methyl-N-[4-(trifluoromethyl)phenyl]acetamide]: the IC50 was found to be 389 nM. In turn, `CN(C(=O)CN1N=C(c2ccc(C(F)(F)F)cc2)CCC1=O)c1ccc(C(F)(F)F)cc1` [Example 1-40, N-Methyl-2-[6-oxo-3-[4-(trifluoromethyl)phenyl]-4,5-dihydropyridazin-1-yl]-N-[4-(trifluoromethyl)phenyl]acetamide] displayed an IC50 of 380 nM. For `Cc1cc(C2=NN(CC(=O)N(C)c3cccc(C(F)(F)F)c3)C(=O)CC2)ccc1F` [Example 1-35, 2-[3-(4-Fluoro-3-methyl-phenyl)-6-oxo-4,5-dihydropyridazin-1-yl]-N-methyl-N-[3-(trifluoromethyl)phenyl]acetamide], the IC50 turned out to be 4660 nM. To `CN(C(=O)CN1N=C(c2ccc(Br)cc2)CCC1=O)c1ccc(C(F)(F)F)cc1` [Example 1-51, 2-[3-(4-Bromophenyl)-6-oxo-4,5-dihydropyridazin-1-yl]-N-methyl-N-[4-(trifluoromethyl)phenyl]acetamide] belongs 1160 nM; to `CN(C(=O)CN1N=C(c2ccc(Cl)cc2)CCC1=O)c1cccc(C(F)(F)F)c1` [Example 1-19, 2-[3-(4-Chlorophenyl)-6-oxo-4,5-dihydropyridazin-1-yl]-N-methyl-N-[3-(trifluoromethyl)phenyl]acetamide], 1000 nM. `Cc1cc(Cl)ccc1C1=NN(CC(=O)N(C)c2cccc(F)c2)C(=O)CC1` [Example 1-28, 2-[3-(4-Chloro-2-methyl-phenyl)-6-oxo-4,5-dihydropyridazin-1-yl]-N-(3-fluorophenyl)-N-methyl-acetamide] yielded an IC50 of 4590 nM. In turn, `CN(C(=O)Cn1nc(-c2ccc(Cl)cc2)cnc1=O)c1ccc(Cl)cc1` [Example 3-2, N-(4-Chlorophenyl)-2-[6-(4-chlorophenyl)-3-oxo-1,2,4-triazin-2-yl]-N-methyl-acetamide] showed an IC50 of 6230 nM. Compound `CN(C(=O)CN1N=C(c2ccc(Cl)cc2)CCC1=O)c1ccc(Cl)c(F)c1` [Example 1-4, N-(4-Chloro-3-fluoro-phenyl)-2-[3-(4-chlorophenyl)-6-oxo-4,5-dihydropyridazin-1-yl]-N-methyl-acetamide] gave an IC50 of 994 nM. `CN(C(=O)CN1N=C(c2ccc(Cl)cc2Cl)CCC1=O)c1ccc(Cl)cc1` [Example 1-54, N-(4-Chlorophenyl)-2-[3-(2,4-dichlorophenyl)-6-oxo-4,5-dihydropyridazin-1-yl]-N-methyl-acetamide] had an IC50 of 1930 nM. `CN(C(=O)CN1N=C(c2ccc(F)cc2F)CCC1=O)c1ccc(F)c(C(F)(F)F)c1` [Example 1-32, 2-[3-(2,4-Difluorophenyl)-6-oxo-4,5-dihydropyridazin-1-yl]-N-[4-fluoro-3-(trifluoromethyl)phenyl]-N-methyl-acetamide] registered an IC50 of 513 nM.

For `CN(C(=O)CN1N=C(c2ccc(C(F)(F)F)cc2)CCC1=O)c1ccc(F)cc1` [Example 1-43, N-(4-Fluorophenyl)-N-methyl-2-[6-oxo-3-[4-(trifluoromethyl)phenyl]-4,5-dihydropyridazin-1-yl]acetamide], the IC50 came out at 2470 nM.

The compound `CN(C(=O)CN1N=C(c2ccc(Cl)c(Cl)c2)CCC1=O)c1ccc(C(F)(F)F)cc1` [Example 1-45, 2-[3-(3,4-Dichlorophenyl)-6-oxo-4,5-dihydropyridazin-1-yl]-N-methyl-N-[4-(trifluoromethyl)phenyl]acetamide] yielded an IC50 of 230 nM. With `Cc1cc(C2=NN(CC(=O)N(C)c3ccc(C(F)(F)F)cc3)C(=O)CC2)ccc1F` [Example 1-36, 2-[3-(4-Fluoro-3-methyl-phenyl)-6-oxo-4,5-dihydropyridazin-1-yl]-N-methyl-N-[4-(trifluoromethyl)phenyl]acetamide], the IC50 was 3100 nM.

Consider `CN(C(=O)CN1N=C(c2ccc(Cl)cc2)CCC1=O)c1ccc(C(F)(F)F)c(F)c1` [Example 1-3, 2-[3-(4-Chlorophenyl)-6-oxo-4,5-dihydropyridazin-1-yl]-N-[3-fluoro-4-(trifluoromethyl)phenyl]-N-methyl-acetamide], for which the IC50 turned out to be 301 nM. This IC50 is about 10-fold lower than that of the compound before.

Compound `CN(C(=O)CN1N=C(c2ccc(C(F)(F)F)cc2)CCC1=O)c1cccc(F)c1` [Example 1-42, N-(3-Fluorophenyl)-N-methyl-2-[6-oxo-3-[4-(trifluoromethyl)phenyl]-4,5-dihydropyridazin-1-yl]acetamide] gave an IC50 of 520 nM. `CN(C(=O)CN1N=C(c2ccc(F)cc2F)CCC1=O)c1cccc(F)c1` [Example 1-34, 2-[3-(2,4-Difluorophenyl)-6-oxo-4,5-dihydropyridazin-1-yl]-N-(3-fluorophenyl)-N-methyl-acetamide] gave an IC50 of 1250 nM.

On to `Cc1cc(Cl)ccc1C1=NN(CC(=O)N(C)c2ccc(Cl)cc2)C(=O)CC1` [Example 1-26, 2-[3-(4-Chloro-2-methylphenyl)-6-oxo-4,5-dihydropyridazin-1-yl]-N-(4-chlorophenyl)-N-methyl-acetamide], for which 1880 nM corresponded to half-maximal inhibition (IC50).

As to `CN(C(=O)CN1N=C(c2ccc(Cl)cc2)CCC1=O)c1ccc(Cl)c(Cl)c1` [Example 1-8, 2-[3-(4-Chlorophenyl)-6-oxo-4,5-dihydropyridazin-1-yl]-N-(3,4-dichlorophenyl)-N-methyl-acetamide], inhibition was half-maximal at 246 nM (IC50).

Turning to `CN(C(=O)CN1N=C(c2cccc(Cl)c2)CCC1=O)c1ccc(Cl)cc1` [Example 1-57, N-(4-Chlorophenyl)-2-[3-(3-chlorophenyl)-6-oxo-4,5-dihydropyridazin-1-yl]-N-methyl-acetamide], half-maximal inhibition (IC50) required 3020 nM. Turning to `Cc1ccc(C2=NN(CC(=O)N(C)c3ccc(Cl)cc3)C(=O)CC2)cc1` [Example 1-56, N-(4-Chlorophenyl)-N-methyl-2-[6-oxo-3-(p-tolyl)-4,5-dihydropyridazin-1-yl]acetamide], the IC50 is 9510 nM.

`CN(C(=O)Cn1nc(-c2ccc(Cl)cc2F)ccc1=O)c1ccc(C(F)(F)F)cc1` [Example 2-3, 2-[3-(4-Chloro-2-fluoro-phenyl)-6-oxo-pyridazin-1-yl]-N-methyl-N-[4-(trifluoromethyl)phenyl]acetamide] yielded an IC50 of 1500 nM. Compared with the last compound, the IC50 is about 6.3-fold lower. In the case of `CN(C(=O)CN1N=C(c2ccc(F)c(F)c2)CCC1=O)c1ccc(C(F)(F)F)cc1` [Example 1-53, 2-[3-(3,4-Difluorophenyl)-6-oxo-4,5-dihydropyridazin-1-yl]-N-methyl-N-[4-(trifluoromethyl)phenyl]acetamide], the IC50 was found to be 860 nM. Against the preceding compound, the IC50 is about 1.7-fold lower.

Turning to `CCCCCN(C)C(=O)c1ccc(N(C)C(=O)CN2N=C(c3ccc(Cl)cc3)CCC2=O)cc1` [Example 1-14, 4-[[2-[3-(4-Chlorophenyl)-6-oxo-4,5-dihydropyridazin-1-yl]acetyl]-methyl-amino]-N-methyl-N-pentyl-benzamide], half-maximal inhibition (IC50) required 3020 nM. This IC50 is about 3.5-fold higher than that of the compound before.

`Cc1cccc(N(C)C(=O)CN2N=C(c3ccc(Cl)cc3)CCC2=O)c1` [Example 1-21, 2-[3-(4-Chlorophenyl)-6-oxo-4,5-dihydropyridazin-1-yl]-N-methyl-N-(m-tolyl)acetamide]: the midpoint of inhibition, the IC50, lay at 2080 nM. Turning to `CN(C(=O)CN1N=C(c2ccc(Cl)cc2)CCC1=O)c1ccc(F)cc1F` [Example 1-13, 2-[3-(4-Chlorophenyl)-6-oxo-4,5-dihydropyridazin-1-yl]-N-(2,4-difluorophenyl)-N-methyl-acetamide], the IC50 is 6610 nM. This IC50 lies about 3.2-fold higher than the previous one.

Compound `CN(C(=O)CN1N=C(c2ccc(F)cc2)CCC1=O)c1ccccc1` [Example 1-47, 2-[3-(4-Fluorophenyl)-6-oxo-4,5-dihydropyridazin-1-yl]-N-methyl-N-phenyl-acetamide] gave an IC50 of 8930 nM. Consider `CN(C(=O)Cn1nc(-c2ccc(Cl)c(F)c2)ccc1=O)c1ccc(C(F)(F)F)cc1` [Example 2-2, 2-[3-(4-Chloro-3-fluorophenyl)-6-oxo-pyridazin-1-yl]-N-methyl-N-[4-(trifluoromethyl)phenyl]acetamide], for which the IC50 stood at 520 nM. To `CN(C(=O)CN1N=C(c2ccc(Cl)cc2)CNC1=O)c1ccc(C(F)(F)F)cc1` [Example 3-1, 2-[6-(4-Chlorophenyl)-3-oxo-4,5-dihydro-1,2,4-triazin-2-yl]-N-methyl-N-[4-(trifluoromethyl)phenyl]acetamide] belongs 10300 nM. For the compound `CN(C(=O)CN1N=C(c2ccc(F)cc2F)CCC1=O)c1ccc(Cl)cc1` [Example 1-33, N-(4-Chlorophenyl)-2-[3-(2,4-difluorophenyl)-6-oxo-4,5-dihydropyridazin-1-yl]-N-methyl-acetamide], inhibition was half-maximal at 850 nM (IC50).

Turning to `Cc1cc(C2=NN(CC(=O)N(C)c3ccc(F)c(C(F)(F)F)c3)C(=O)CC2)ccc1F` [Example 1-37, 2-[3-(4-Fluoro-3-methyl-phenyl)-6-oxo-4,5-dihydropyridazin-1-yl]-N-[4-fluoro-3-(trifluoromethyl)phenyl]-N-methyl-acetamide], the midpoint of inhibition, the IC50, lay at 3140 nM. Against the preceding compound, the IC50 is about 3.7-fold higher.
